Values of other authors as cited in patent US20200300859A1, “MODULATING BIOMARKERS TO INCREASE TUMOR IMMUNITY AND IMPROVE THE EFFICACY OF CANCER IMMUNOTHERAPY” (Dana-Farber Cancer Institute, Inc., priority 2017, published 2020).

Test system: osmotic nephrosis
Conditions: in vivo

## CN1C(=O)C(Cc2c[nH]c3ccccc23)NC1=S (stereo not shown) [Necrostatin-1, 5-(1H-Indol-3-ylmethyl)-3-methyl-2-thioxo-4-imidazolidinone]
  osmotic nephrosis: prevents
